What was measured:
[1] = system: Mus musculus; experiment: In vivo analgesic activity in hot plate test after subcutaneous administration in mice; format: functional; conditions: sc
[2] = molecular target: T1, Kappa-type opioid receptor (Rattus norvegicus, UniProt P34975); experiment: […] to Opioid receptor kappa 1 of rat brain homogenate; Not detectable; format: tissue-based
[3] = molecular target: Mu-type opioid receptor (Rattus norvegicus, UniProt P33535); experiment: Inhibition of [3H]dihydromorphine (1 nM) binding to mu opioid receptor of rat brain homogenate
Chain of Mu-type opioid receptor (P33535 whole entry): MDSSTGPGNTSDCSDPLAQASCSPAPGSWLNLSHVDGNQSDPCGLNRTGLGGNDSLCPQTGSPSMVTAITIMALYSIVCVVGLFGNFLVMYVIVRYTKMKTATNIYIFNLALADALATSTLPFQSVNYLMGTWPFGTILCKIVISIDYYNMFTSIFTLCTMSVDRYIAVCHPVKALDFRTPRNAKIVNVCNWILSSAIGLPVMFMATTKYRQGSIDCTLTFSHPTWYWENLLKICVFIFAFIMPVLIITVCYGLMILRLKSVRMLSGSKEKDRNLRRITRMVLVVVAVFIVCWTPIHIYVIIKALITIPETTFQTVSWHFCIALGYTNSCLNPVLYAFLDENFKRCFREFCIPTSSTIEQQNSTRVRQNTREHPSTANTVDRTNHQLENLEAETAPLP

[4] = molecular target: T2, Delta-type opioid receptor (Rattus norvegicus, UniProt P33533); experiment: Inhibition of [3H]-[D-Pen2, D-Pen5]-enkephalin (2 nM) to Opioid receptor delta 1 of male Sprague-Dawley rat brain homogenate
T2 sequence (P33533 whole entry): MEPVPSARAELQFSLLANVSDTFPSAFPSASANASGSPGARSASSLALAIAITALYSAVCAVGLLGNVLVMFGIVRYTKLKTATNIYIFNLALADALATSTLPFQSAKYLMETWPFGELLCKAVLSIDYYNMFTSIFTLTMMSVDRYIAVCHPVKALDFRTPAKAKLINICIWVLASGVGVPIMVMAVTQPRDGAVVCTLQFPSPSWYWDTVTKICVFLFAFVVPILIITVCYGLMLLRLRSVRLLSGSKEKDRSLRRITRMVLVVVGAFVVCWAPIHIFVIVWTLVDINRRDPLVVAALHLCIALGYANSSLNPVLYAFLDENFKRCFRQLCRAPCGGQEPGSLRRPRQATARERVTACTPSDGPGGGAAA

[5] = molecular target: T1, Kappa-type opioid receptor; experiment: Inhibition of 9 (2 nM) binding to Opioid receptor kappa 1 of rat brain homogenate; format: tissue-based
[6] = molecular target: T2, Delta-type opioid receptor; experiment: Inhibition of [3H]-[D-Pen2, D-Pen5]-enkephalin (2 nM) to Opioid receptor delta 1 of male Sprague-Dawley rat brain homogenate; Not detectable

T1 sequence (P34975 whole entry): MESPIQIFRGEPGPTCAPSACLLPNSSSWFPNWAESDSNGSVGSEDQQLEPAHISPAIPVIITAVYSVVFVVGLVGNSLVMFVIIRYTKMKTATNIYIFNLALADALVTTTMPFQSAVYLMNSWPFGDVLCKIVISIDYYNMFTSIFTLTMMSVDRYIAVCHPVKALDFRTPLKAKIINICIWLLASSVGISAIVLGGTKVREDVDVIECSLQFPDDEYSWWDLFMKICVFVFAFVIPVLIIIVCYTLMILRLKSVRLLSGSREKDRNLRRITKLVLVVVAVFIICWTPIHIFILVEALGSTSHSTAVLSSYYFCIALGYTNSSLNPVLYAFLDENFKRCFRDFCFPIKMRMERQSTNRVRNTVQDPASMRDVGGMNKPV

| SMILES | ED50 [1] | Ki [2] | Ki [3] | Ki [4] | Ki [5] | Ki [6] |
| --- | --- | --- | --- | --- | --- | --- |
| CC[C@@H](C)N(C[C@H](O)[C@@H]1CCC(=O)N1Cc1ccccc1Cl)[C@@H](C)CC | 1.5 mg/kg | Not Active | 32 nM | > 5000 nM | – | – |
| CC[C@@H](C)N(C[C@H](O)[C@H]1CCC(=O)N1Cc1ccccc1Cl)[C@H](C)CC | 10.4 mg/kg | – | 100 nM | 1850 nM | > 5000 nM | – |
| CC[C@@H](C)N(C[C@H](O)[C@@H]1CCC(=O)N1Cc1ccccc1Cl)[C@H](C)CC | 0.01 mg/kg | – | 0.25 nM | 265 nM | 62.5 nM | – |
| CC[C@H](C)N(C[C@H](O)[C@H]1CCC(=O)N1Cc1ccccc1Cl)[C@@H](C)CC | > 100 mg/kg | – | > 5000 nM | > 5000 nM | 270 nM | – |
| CC[C@@H](C)N(C[C@@H](O)[C@H]1CCC(=O)N1Cc1ccccc1Cl)[C@@H](C)CC | 14.3 mg/kg | – | 87 nM | 1780 nM | 260 nM | – |
| CC[C@H](C)N(C[C@@H](O)[C@@H]1CCC(=O)N1Cc1ccccc1Cl)[C@@H](C)CC | > 100 mg/kg | – | 145 nM | > 5000 nM | > 5000 nM | – |
| CC[C@H](C)N(C[C@H](O)[C@@H]1CCC(=O)N1Cc1ccccc1Cl)[C@@H](C)CC | > 100 mg/kg | – | 2250 nM | > 5000 nM | > 5000 nM | – |
| CC[C@@H](C)N(C[C@@H](O)[C@H]1CCC(=O)N1Cc1ccccc1Cl)[C@H](C)CC | 0.47 mg/kg | – | 35 nM | > 5000 nM | 4850 nM | – |
| CC[C@@H](C)N(C[C@@H](O)[C@@H]1CCC(=O)N1Cc1ccccc1Cl)[C@H](C)CC | > 100 mg/kg | – | 390 nM | 550 nM | > 5000 nM | – |
| CC[C@@H](C)N(C[C@H](O)[C@H]1CCC(=O)N1Cc1ccccc1Cl)[C@@H](C)CC | > 100 mg/kg | – | > 5000 nM | – | 198 nM | Not Active |
| CC[C@H](C)N(C[C@@H](O)[C@H]1CCC(=O)N1Cc1ccccc1Cl)[C@@H](C)CC | > 100 mg/kg | Not Active | > 5000 nM | – | – | Not Active |
| CC[C@@H](C)N(C[C@@H](O)[C@@H]1CCC(=O)N1Cc1ccccc1Cl)[C@@H](C)CC | > 100 mg/kg | – | 340 nM | > 5000 nM | 3650 nM | – |
| CN1CC[C@]23c4c5ccc(O)c4O[C@H]2[C@@H](O)C=C[C@H]3[C@H]1C5 [MORPHINE] | 4.6 mg/kg | – | – | – | – | – |

Source: ChEMBL document CHEMBL1128854, “Stereoselective synthesis and evaluation of all stereoisomers of Z4349, a novel and selective -opioid analgesic” (Bioorg Med Chem Lett, 1995)
